Melting point, pest or weed control and inhibition of growth data for 20 compounds are collected here from patent US20200022370A1, “MICROBIOCIDAL OXADIAZOLE DERIVATIVES” (SYNGENTA PARTICIPATIONS AG, priority 2016, published 2020).

The subject of series [1] is Puccinia recondita f. Sp. Tritici. In words: Puccinia recondita f. sp. tritici / wheat / leaf disc preventative (brown rust). In kind it is in vivo. The following applies: foliar, 200 ppm in the applied formulation, wheat leaf segments cv. Kanzler, inoculated 1 day after application, vs untreated, 7 to 9 days after application, read-out: disease control. The procedure, abridged:
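Segments of cv. Kanzler wheat on agar received a spray of compound formulation diluted in water and were inoculated with spores one day afterwards. Kept at 19° C and 75% rh under 12 h/12 h light; disease control relative to untreated checks rated at 7–9 days post-application.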

In series [2] the test system is Glomerella lacenarium (Colletotrichum lacenarium). In words: Glomerella lacenarium (Colletotrichum lacenarium) liquid culture / cucumber / preventative (anthracnose). Particulars: 20 ppm, liquid culture in PDB, 24° C., inhibition of growth measured photometrically 3 to 4 days after application, vs untreated, read-out: disease control. Format: cell-based. Summed up: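 Cryopreserved conidia in potato dextrose broth were added to test compound in a 96-well microtiter plate and incubated at 24 °C. Growth inhibition read photometrically 3–4 days after application, as percent activity versus untreated check.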

The test system of series [3] is Phakopsora pachyrhizi. In words: Phakopsora pachyrhizi / soybean / leaf disc preventative (Asian soybean rust). In kind it is in vivo. The following applies: foliar, 200 ppm in the applied formulation, soybean leaf disks, inoculated one day after application, vs untreated, 12 to 14 days after application, read-out: disease control. The procedure, abridged: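 Soybean leaf discs on water agar sprayed with formulated compound diluted in water, then inoculated one day later with spore suspension on the lower surface. Held 24-36 h dark at 20 °C, 75% rh, then 12 h light/day; percent disease control versus untreated scored 12-14 days after application.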

Series [4] has as its system Puccinia recondita f. Sp. Tritici. Kind of series: Puccinia recondita f. sp. tritici / wheat / leaf disc curative (brown rust). Particulars: foliar, 200 ppm in the applied formulation, wheat leaf segments cv. Kanzler, compound applied 1 day after inoculation, vs untreated, 6 to 8 days after application, read-out: disease control. In kind it is in vivo. Summed up: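 Wheat leaf segments (cv. Kanzler) on agar inoculated with brown rust spores, held dark at 19 °C/75% RH, then sprayed 1 day post-inoculation with formulated compound diluted in water (curative). Incubated at 19 °C/75% RH, 12 h light/12 h dark; percent disease control versus untreated scored 6–8 days after application.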

For series [5], the system named is Uromyces viciae-fabae. In words: Uromyces viciae-fabae / field bean / leaf disc preventative (faba-bean rust). Particulars: foliar, 288 h, 100 ppm in the applied formulation, field bean leaf discs, inoculated two hours after application, vs untreated, 12 days after application, read-out: disease control. Format: in vivo. Summed up:
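Field bean leaf discs on water agar received formulated compound (in acetone with spreader), then were spray-inoculated with spores on the lower surface 2 h later. Discs were kept at 22 °C, 18 h day, 70% RH. Percent disease control versus untreated discs was scored 12 days after application.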

`CC(C)=CCONC(=O)Nc1ccc(-c2noc(C(F)(F)F)n2)cc1` [Compound 1.66, 1-(3-methylbut-2-enoxy)-3-[4-[5-(trifluoromethyl)-1,2,4-oxadiazol-3-yl]phenyl]urea] returned a melting point of 118 to 121 °C. Also, the pest or weed control at 200 ppm in series [1] is at least 80%. For the same compound, the inhibition of growth at 20 ppm in series [2] was at least 80%.
For `COCC(=O)Nc1ccc(-c2noc(C(F)(F)F)n2)cc1` [Compound 2.1, 2-methoxy-N-[4-[5-(trifluoromethyl)-1,2,4-oxadiazol-3-yl]phenyl]acetamide], the melting point fell in the range of 93 to 94 °C. Further, in series [3], the pest or weed control at 200 ppm was at least 80%. Moreover, in series [1], the pest or weed control at 200 ppm is at least 80%. Further, in series [4], the pest or weed control at 200 ppm was at least 80%. Also, the pest or weed control at 100 ppm in series [5] is at least 80%. Moreover, the inhibition of growth at 20 ppm in series [2] is at least 80%.
`C=CCONC(=O)Nc1ccc(-c2noc(C(F)(F)F)n2)cc1` [Compound 2.3, 1-allyloxy-3-[4-[5-(trifluoromethyl)-1,2,4-oxadiazol-3-yl]phenyl]urea] came in with a melting point of 124 to 127 °C. In addition, in series [3], the pest or weed control at 200 ppm was at least 80%. Moreover, in series [1], the pest or weed control at 200 ppm is at least 80%. For the same compound, in series [4], the pest or weed control at 200 ppm is at least 80%. Further, in series [5], the pest or weed control at 100 ppm was at least 80%. For the same compound, the inhibition of growth at 20 ppm in series [2] was at least 80%.
As to `CCC(=O)N(C)c1ccc(-c2noc(C(F)(F)F)n2)cc1` [Compound 2.17, N-methyl-N-[4-[5-(trifluoromethyl)-1,2,4-oxadiazol-3-yl]phenyl] propanamide], the melting point lay in the range of 78 to 86 °C. Besides, the pest or weed control at 200 ppm in series [3] was at least 80%. The pest or weed control at 200 ppm in series [1] is at least 80%. In addition, in series [4], the pest or weed control at 200 ppm is at least 80%. The inhibition of growth at 20 ppm in series [2] was at least 80%.
Consider `CON1CCN(C(=O)Nc2ccc(-c3noc(C(F)(F)F)n3)cc2)CC1` [Compound 1.130, 4-methoxy-N-[4-[5-(trifluoromethyl)-1,2,4-oxadiazol-3-yl]phenyl]piperazine-1-carboxamide], for which the melting point was 164 to 167 °C. The pest or weed control at 200 ppm in series [3] was at least 80%. Further, the pest or weed control at 200 ppm in series [1] was at least 80%. Moreover, the pest or weed control at 200 ppm in series [4] is at least 80%. Besides, in series [2], the inhibition of growth at 20 ppm was at least 80%.
For `COCC(=O)N(c1ccc(-c2noc(C(F)(F)F)n2)cc1)C(C)C(=O)NC(C)(C)C` (centres unmarked) [Compound 1.62, N-tert-butyl-2-[N-(2-methoxyacetyl)-4-[5-(trifluoromethyl)-1,2,4-oxadiazol-3-yl]anilino] propanamide], the melting point lay in the range of 115 to 117 °C. Moreover, in series [5], the pest or weed control at 100 ppm is at least 80%.
In turn, `O=C(Nc1ccc(-c2noc(C(F)(F)F)n2)cc1)C(F)(F)F` [Compound 2.2, 2,2,2-trifluoro-N-[4-[5-(trifluoromethyl)-1,2,4-oxadiazol-3-yl]phenyl]acetamide] registered a melting point of 146 to 147 °C. In addition, the pest or weed control at 100 ppm in series [5] was at least 80%. For the same compound, in series [2], the inhibition of growth at 20 ppm was at least 80%.
For `CONC(=O)N(C)c1ccc(-c2noc(C(F)(F)F)n2)cc1` [Compound 1.132, 3-methoxy-1-methyl-1-[4-[5-(trifluoromethyl)-1,2,4-oxadiazol-3-yl]phenyl]urea], the melting point lay in the range of 73 to 76 °C. In addition, the pest or weed control at 200 ppm in series [1] is at least 80%. In series [4], the pest or weed control at 200 ppm is at least 80%. Moreover, the inhibition of growth at 20 ppm in series [2] was at least 80%.
`CONC(=O)Nc1ccc(-c2noc(C(F)(F)F)n2)cc1` [Compound 2.30, 1-methoxy-3-[4-[5-(trifluoromethyl)-1,2,4-oxadiazol-3-yl]phenyl]urea] yielded a melting point of 152 to 155 °C. Also, in series [1], the pest or weed control at 200 ppm was at least 80%. In addition, in series [2], the inhibition of growth at 20 ppm was at least 80%.
`COCCN(OC)C(=O)Nc1ccc(-c2noc(C(F)(F)F)n2)cc1` [Compound 1.68, 1-methoxy-1-(2-methoxyethyl)-3-[4-[5-(trifluoromethyl)-1,2,4-oxadiazol-3-yl]phenyl]urea] showed a melting point of 89 to 92 °C. The pest or weed control at 200 ppm in series [3] is at least 80%. For the same compound, in series [1], the pest or weed control at 200 ppm was at least 80%. For the same compound, the pest or weed control at 200 ppm in series [4] is at least 80%. Also, the inhibition of growth at 20 ppm in series [2] was at least 80%.
`O=C(Nc1ccc(-c2noc(C(F)(F)F)n2)cc1)c1cn[nH]c1` [Compound 1.11, N-[4-[5-(trifluoromethyl)-1,2,4-oxadiazol-3-yl]phenyl]-1H-pyrazole-4-carboxamide] displayed a melting point of 200 to 204 °C. Also, the pest or weed control at 100 ppm in series [5] is at least 80%.
`O=C(Nc1ccc(-c2noc(C(F)(F)F)n2)cc1)N1CCCCO1` [Compound 2.23, N-[4-[5-(trifluoromethyl)-1,2,4-oxadiazol-3-yl]phenyl]oxazinane-2-carboxamide] came in with a melting point of 117 to 120 °C. Moreover, the pest or weed control at 200 ppm in series [3] was at least 80%. Further, the pest or weed control at 200 ppm in series [1] is at least 80%. In addition, in series [4], the pest or weed control at 200 ppm was at least 80%. Also, in series [2], the inhibition of growth at 20 ppm is at least 80%.
For the compound `O=C(Nc1ccc(-c2noc(C(F)(F)F)n2)cc1)c1ccccc1C(F)(F)F` [Compound 1.1, 2-(trifluoromethyl)-N-[4-[5-(trifluoromethyl)-1,2,4-oxadiazol-3-yl]phenyl]benzamide], the melting point lay within 162 to 163 °C. Also, in series [3], the pest or weed control at 200 ppm is at least 80%. For the same compound, the pest or weed control at 100 ppm in series [5] is at least 80%. Moreover, in series [2], the inhibition of growth at 20 ppm was at least 80%.
As to `CC(C)(C)NC(=O)CN(C(=O)C1CC1)c1ccc(-c2noc(C(F)(F)F)n2)cc1` [Compound 1.60, N-[2-(tert-butylamino)-2-oxo-ethyl]-N-[4-[5-(trifluoromethyl)-1,2,4-oxadiazol-3-yl]phenyl]cyclopro-panecarboxamide], the melting point was in the range of 110 to 112 °C. The pest or weed control at 100 ppm in series [5] was at least 80%. Further, in series [2], the inhibition of growth at 20 ppm is at least 80%.
For `O=C(Nc1ccc(-c2noc(C(F)(F)F)n2)cn1)c1ccccc1` [Compound 1.46, N-[5-[5-(trifluoromethyl)-1,2,4-oxadiazol-3-yl]-2-pyridyl]benzamide], the melting point was in the range of 172.8 to 174.3 °C. Moreover, in series [3], the pest or weed control at 200 ppm is at least 80%. Further, in series [5], the pest or weed control at 100 ppm was at least 80%.
`C=C(C)CONC(=O)Nc1ccc(-c2noc(C(F)(F)F)n2)cc1` [Compound 1.70, 1-(2-methylallyloxy)-3-[4-[5-(trifluoromethyl)-1,2,4-oxadiazol-3-yl]phenyl]urea]: the melting point lay in the range of 134 to 137 °C. In addition, in series [3], the pest or weed control at 200 ppm was at least 80%. In addition, the pest or weed control at 200 ppm in series [1] is at least 80%. Besides, the pest or weed control at 200 ppm in series [4] is at least 80%. Further, the inhibition of growth at 20 ppm in series [2] is at least 80%.
`C=C(C)CON(C)C(=O)Nc1ccc(-c2noc(C(F)(F)F)n2)cc1` [Compound 1.131, 1-methyl-1-(2-methylallyloxy)-3-[4-[5-(trifluoromethyl)-1,2,4-oxadiazol-3-yl]phenyl]urea] displayed a melting point of 65 to 68 °C. For the same compound, the pest or weed control at 200 ppm in series [3] is at least 80%. Besides, the pest or weed control at 200 ppm in series [1] was at least 80%. The pest or weed control at 200 ppm in series [4] is at least 80%. The inhibition of growth at 20 ppm in series [2] is at least 80%.
In turn, `CONC(=O)Nc1ccc(-c2noc(C(F)(F)F)n2)cn1` [Compound 1.63, 1-methoxy-3-[5-[5-(trifluoromethyl)-1,2,4-oxadiazol-3-yl]-2-pyridyl]urea] showed a melting point of 151 to 154 °C. Further, the pest or weed control at 200 ppm in series [3] was at least 80%. Besides, the inhibition of growth at 20 ppm in series [2] was at least 80%.
For `CON(C)C(=O)Nc1ccc(-c2noc(C(F)(F)F)n2)cn1` [Compound 1.64, 1-methoxy-1-methyl-3-[5-[5-(trifluoromethyl)-1,2,4-oxadiazol-3-yl]-2-pyridyl]urea], the melting point lay in the range of 83 to 87 °C. In series [1], the pest or weed control at 200 ppm is at least 80%. Also, the inhibition of growth at 20 ppm in series [2] was at least 80%.
Compound `CCN(OC)C(=O)Nc1ccc(-c2noc(C(F)(F)F)n2)cc1` [Compound 1.67, 1-ethyl-1-methoxy-3-[4-[5-(trifluoromethyl)-1,2,4-oxadiazol-3-yl]phenyl]urea] returned a melting point of 113 to 116 °C. The pest or weed control at 200 ppm in series [3] is at least 80%. The pest or weed control at 200 ppm in series [1] was at least 80%. Besides, in series [4], the pest or weed control at 200 ppm is at least 80%. Also, the inhibition of growth at 20 ppm in series [2] was at least 80%.
